# From BindingDB's records for doi:10.1016/j.bioorg.2015.06.004 (University of Karachi, 2015)
# Biological target: Urease [D459Y,K653P] (Canavalia ensiformis, UniProt P07374, D459Y/K653P)
# Assay: Urease Inhibition Assay
# Conditions: pH 8.2
# Protocol: The mixture of this enzyme inhibition assay was composed of 10 µL of enzyme (5 U/mL) and 10 µL of each test compound in the series (3a-3s) in 40 µL buffer (100 mM urea, 0.01 M K2HPO4, 1 mM EDTA and 0.01 M […], pH 8.2). The resulting mixture in for each test compound was incubated for 30 min at 37 °C in 96-well plates. Subsequently, the phenol reagents (40 µL) (1%, w/v phenol and 0.005%, w/v sodium nitroprusside) and alkali reagent (40 µL) (0.5%, w/v NaOH and 0.1% active chloride NaOCl) were dropped down into each well. The absorbance of the colored resultant mixtures was measured after 30 min at 625 nm.
# Chain of Urease [D459Y,K653P] (P07374 whole entry D459Y/K653P): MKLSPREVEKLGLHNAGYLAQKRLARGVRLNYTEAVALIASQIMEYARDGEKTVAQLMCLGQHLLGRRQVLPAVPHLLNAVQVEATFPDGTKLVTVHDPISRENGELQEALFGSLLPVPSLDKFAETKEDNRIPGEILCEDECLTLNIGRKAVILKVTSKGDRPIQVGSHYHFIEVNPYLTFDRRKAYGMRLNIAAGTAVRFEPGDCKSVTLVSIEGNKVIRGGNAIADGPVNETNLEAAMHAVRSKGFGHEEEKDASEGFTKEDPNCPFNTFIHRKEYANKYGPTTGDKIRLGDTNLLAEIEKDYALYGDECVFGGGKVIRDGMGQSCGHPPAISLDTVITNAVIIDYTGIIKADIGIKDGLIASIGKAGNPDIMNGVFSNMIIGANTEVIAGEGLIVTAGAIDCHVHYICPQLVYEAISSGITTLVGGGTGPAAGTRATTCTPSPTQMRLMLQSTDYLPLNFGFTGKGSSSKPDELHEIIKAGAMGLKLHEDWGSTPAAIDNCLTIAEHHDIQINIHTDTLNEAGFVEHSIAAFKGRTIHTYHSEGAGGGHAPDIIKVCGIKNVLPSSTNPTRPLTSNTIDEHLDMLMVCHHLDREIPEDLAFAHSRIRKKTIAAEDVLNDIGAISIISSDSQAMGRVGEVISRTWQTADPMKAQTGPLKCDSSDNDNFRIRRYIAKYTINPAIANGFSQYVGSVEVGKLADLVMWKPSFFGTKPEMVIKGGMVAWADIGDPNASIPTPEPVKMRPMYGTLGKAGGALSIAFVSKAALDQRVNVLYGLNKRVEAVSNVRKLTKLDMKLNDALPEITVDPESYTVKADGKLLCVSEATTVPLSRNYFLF
row,SMILES,IC50 [nM]
1,CC(=NNC(=S)Nc1cccc(C)c1)c1cc2ccccc2o1 [1-[1-(2-benzofuranyl)ethylideneamino]-3-(3-methylphenyl)thiourea],283
2,"CC(=NNC(=S)Nc1ccc(Cl)cc1Cl)c1cc2ccccc2o1 [2-(1-(Benzofuran-2-yl)ethylidene)-N-(2,4-dichlorophenyl)-hydrazinecarbothioamide (3c)]",592
3,"CC(=NNC(=S)Nc1ccc(F)cc1F)c1cc2ccccc2o1 [2-(1-(Benzofuran-2-yl)ethylidene)-N-(2,4-difluorophenyl)hydrazinecarbothioamide (3h)]",387
4,"CC(=NNC(=S)Nc1cc(Cl)ccc1Cl)c1cc2ccccc2o1 [2-(1-(Benzofuran-2-yl)ethylidene)-N-(2,5-dichlorophenyl)-hydrazinecarbothioamide (3d)]",2010
5,CC(=NNC(=S)Nc1ccccc1Br)c1cc2ccccc2o1 [2-(1-(Benzofuran-2-yl)ethylidene)-N-(2-bromophenyl)hydrazinecarbothioamide (3j)],564
6,CC(=NNC(=S)Nc1ccccc1F)c1cc2ccccc2o1 [2-(1-(Benzofuran-2-yl)ethylidene)-N-(2-fluorophenyl)hydrazinecarbothioamide (3g)],321
7,COc1ccccc1NC(=S)NN=C(C)c1cc2ccccc2o1 [2-(1-(Benzofuran-2-yl)ethylidene)-N-(2-methoxyphenyl)hydrazinecarbothioamide (3o)],24000
8,CC(=NNC(=S)Nc1ccccc1C)c1cc2ccccc2o1 [2-(1-(Benzofuran-2-yl)ethylidene)-N-(2-methylphenyl)hydrazinecarbothioamide (3p)],314
9,CC(=NNC(=S)Nc1cccc(Br)c1)c1cc2ccccc2o1 [2-(1-(Benzofuran-2-yl)ethylidene)-N-(3-bromophenyl)hydrazinecarbothioamide (3i)],10900
10,CC(=NNC(=S)Nc1cccc(Cl)c1)c1cc2ccccc2o1 [2-(1-(Benzofuran-2-yl)ethylidene)-N-(3-chlorophenyl)hydrazinecarbothioamide (3b)],1130
11,CC(=NNC(=S)Nc1cccc(F)c1)c1cc2ccccc2o1 [2-(1-(Benzofuran-2-yl)ethylidene)-N-(3-fluorophenyl)hydrazinecarbothioamide (3f)],1150
12,COc1cccc(NC(=S)NN=C(C)c2cc3ccccc3o2)c1 [2-(1-(Benzofuran-2-yl)ethylidene)-N-(3-methoxyphenyl)hydrazinecarbothioamide (3n)],102
13,CC(=NNC(=S)Nc1cccc([N+](=O)[O-])c1)c1cc2ccccc2o1 [2-(1-(Benzofuran-2-yl)ethylidene)-N-(3-nitrophenyl)hydrazinecarbothioamide (3k)],77
14,CC(=NNC(=S)Nc1ccc(F)cc1)c1cc2ccccc2o1 [2-(1-(Benzofuran-2-yl)ethylidene)-N-(4-fluorophenyl)hydrazinecarbothioamide (3e)],177
15,COc1ccc(NC(=S)NN=C(C)c2cc3ccccc3o2)cc1 [2-(1-(Benzofuran-2-yl)ethylidene)-N-(4-methoxyphenyl)hydrazinecarbothioamide (3m)],2610
16,CC(=NNC(=S)Nc1ccc([N+](=O)[O-])cc1)c1cc2ccccc2o1 [2-(1-(Benzofuran-2-yl)ethylidene)-N-(4-nitrophenyl)hydrazinecarbothioamide (3l)],181
17,CC(=NNC(=S)Nc1ccccc1)c1cc2ccccc2o1 [2-(1-(Benzofuran-2-yl)ethylidene)-N-phenylhydrazinecarbothioamide (3a)],89
18,C=CCNC(=S)NN=C(C)c1cc2ccccc2o1 [N-Allyl-2-(1-(benzofuran-2-yl)ethylidene)hydrazinecarbothioamide (3s)],694
19,CC(=NNC(=S)Nc1ccc(C)cc1)c1cc2ccccc2o1 [SMR000377934],3470
